Assay results reported in paper PMC6858493 (ACS chemical biology, 2019).

Experiments:
[1] = molecular target: Lon (Escherichia coli, UniProt P0A9M0); assay: biochemical; type: biochemical, E. coli; conditions: for inhibition of recombinant Lon: with varied pre-incubation time
[2] = test system: RAW 264.7 murine macrophages; assay: cells; type: cell-based; conditions: Mus musculus, RAW264.7, 24 h, read-out: EC50 (cell killing)
[3] = test system: E. coli; assay: E. coli exponential growth rate; type: cell-based, Escherichia coli; conditions: 100 μM compound
[4] = test system: E. coli; assay: Ciprofloxacin persister cell quantification; type: cell-based, Escherichia coli
[5] = test system: E. coli; assay: UV-induced filamentation of E. coli; type: cell-based, Escherichia coli
[6] = molecular target: h20S (β5) (Homo sapiens, UniProt P28074); assay: h20S β5 subunit inhibition assay; type: biochemical
[7] = test system: E. coli; assay: Ciprofloxacin MIC measurement; type: cell-based, Escherichia coli; conditions: wild-type cells, 100 μm 11
[8] = molecular target: h20S (β2) (Homo sapiens, UniProt Q99436); assay: h20S β2 subunit inhibition assay; type: biochemical; conditions: 60 min enzyme-inhibitor pre-incubation; mean ± SD, n=3
[9] = molecular target: h20S (β1) (Homo sapiens, UniProt P28072); assay: h20S β1 subunit inhibition assay; type: biochemical
[10] = test system: E. coli Lon; conditions: cited from earlier work
[11] = test system: Lon; conditions: ratio of normalized cleavage rates at 25 μM substrate
[12] = 60 min enzyme-inhibitor pre-incubation, mean ± SD, n=3

Lon (Escherichia coli, UniProt P0A9M0), sequence (P0A9M0 whole entry): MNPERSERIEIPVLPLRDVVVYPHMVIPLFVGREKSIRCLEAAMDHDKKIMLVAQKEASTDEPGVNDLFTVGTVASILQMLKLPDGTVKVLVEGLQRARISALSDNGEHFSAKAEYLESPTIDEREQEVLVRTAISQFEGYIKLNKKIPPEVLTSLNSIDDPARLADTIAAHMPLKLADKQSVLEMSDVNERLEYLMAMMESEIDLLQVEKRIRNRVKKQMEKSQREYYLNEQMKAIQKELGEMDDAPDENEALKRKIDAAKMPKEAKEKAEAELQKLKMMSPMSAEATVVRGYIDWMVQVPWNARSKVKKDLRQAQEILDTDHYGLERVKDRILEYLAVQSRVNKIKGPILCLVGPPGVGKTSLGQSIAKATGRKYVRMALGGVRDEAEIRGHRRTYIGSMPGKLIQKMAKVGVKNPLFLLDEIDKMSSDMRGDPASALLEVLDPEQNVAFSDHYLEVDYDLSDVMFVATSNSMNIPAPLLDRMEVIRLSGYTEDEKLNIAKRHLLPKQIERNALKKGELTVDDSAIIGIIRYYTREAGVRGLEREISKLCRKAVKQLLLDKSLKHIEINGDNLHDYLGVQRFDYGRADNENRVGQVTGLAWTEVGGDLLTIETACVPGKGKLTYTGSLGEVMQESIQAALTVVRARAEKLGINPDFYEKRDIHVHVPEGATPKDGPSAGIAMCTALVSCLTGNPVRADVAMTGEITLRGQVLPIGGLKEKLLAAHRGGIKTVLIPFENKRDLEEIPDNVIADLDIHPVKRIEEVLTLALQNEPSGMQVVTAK

CC(C)C[C@H](NC(=O)[C@H](Cc1ccccc1)NC(=O)c1cnccn1)B(O)O [BZ, bortezomib, reference compound]
IC50 [1]: 500 ± 230 nM
inhibition of recombinant Lon [1]: potent, time-dependent inhibition
EC50 [2]: 160 nM
effect on exponential growth rates [3]: nor treatment with 100 μM 11 or BZ had an effect

CC(C)C[C@H](NC(=O)[C@H](CC(C)(C)C)NC(=O)[C@H](CCCCNC(=N)N)NC(=O)c1cnccn1)B(O)O [compound 11, Pyz-hArg-nptGly-Leu-B(OH)2]
Relative activity (ratio of BZ IC50 to 11 IC50) ([1]; Lon): 1.2
kinact/KI relative to BZ ([1]; time-dependent inhibition of Lon): two-fold higher
inhibition of recombinant Lon [1]: potent, time-dependent inhibition
time course of killing ([4]; co-treatment with ciprofloxacin and 100 μM 11): faster death than wild type
fraction of cells that tolerated ciprofloxacin ([4]; sulA mutant strain): this effect was abrogated
fraction of cells that tolerated ciprofloxacin ([4]; wild-type cells, co-treatment with 10 μg/mL ciprofloxacin, LB and M9 media): statistically-significant reduction
filamentation after UV stress ([5]; sulA mutant strain): no effect on filamentation
filamentation after UV stress ([5]; wild-type, treatment during 6 h outgrowth following UV-stress): dose-dependent increase in filamentation
IC50 [6, 12]: 290 ± 6.4 nM
Relative activity (ratio of BZ IC50 to 11 IC50) ([6]; h20S β5): 0.1
effect on MIC of ciprofloxacin [7]: nor treatment of wild-type cells with 100 μm 11 altered the overall MIC
IC50 [8]: 430 ± 40 nM
IC50 [9, 12]: 1900 ± 140 nM
Relative activity (ratio of BZ IC50 to 11 IC50) ([9]; h20S β1): 0.2
effect on exponential growth rates [3]: nor treatment with 100 μM 11 or BZ had an effect

CN(C)c1cccc2c(S(=O)(=O)F)cccc12 [dansyl fluoride]
inhibition of E. coli Lon [10]: only at mM concentrations

Mo-Leu-Leu-Phe-ACC [compound 1]
selectivity of cleavage, Lon vs h20S [11]: cleaved equally effectively by both Lon and the proteasome
